Read-outs that look alike come from different tables or passages of the source.
System: HT-29 cells
Assay: HT-29 necroptosis cell viability assay (TNF-α/SMAC mimetic/zVAD-FMK, CellTiter-Glo)
Format: cell-based
Settings: read-out: Activity
Procedure: Compounds 1-702 of the disclosure were tested for biological activity, following the experimental procedures described below.
• Cell line: HT-29 (ATCC® HTB-38™) • Culture medium: McCOY's 5A, Gibco, Cat No. 16600-082 • FBS, Gibco, Cat No. 10099-141 C • Trypsin: Gibco, Cat No. 25200-056 • DMSO: Sigma, Cat No. 67-68-5, 1L • Assay plate: Corning #3903 • Compound dilution plate: Corning #3357 • Inducers: TNFα, GenScript, Cat No. Z01001-50, • SmacM, Cat. No., HY-15989, MedChemExpress (MCE) • Z_VAD FMK, TargetMol, T6013 • Cell Titer-Glo® Luminescent Cell Viability Assay Kit: Promega, Cat No. G7573 • EnVision: PerkinElmer, 2105-0010
• 1. HT-29 cells were checked every day to make sure that they were healthy and growing as expected. They were subjected to sub-culturing when they were approximately 80% confluent. • 2. The culture medium, McCOY's 5A medium (Gibco, Cat No. 16600-082) with 10% fetal bovine serum or FBS (Gibco, Cat No. 10099-141C), was pre-warmed in a 37° C. water bath for at least 30 min. • 3. When the cells had reached a desired level of confluency of 80% in a T75 flask, the medium was aspirated, and the cells were washed with warm phosphate buffered saline or PBS two times. • 4. 2-3 ml fresh warm trypsin (Gibco, Cat No. 25200-056) solution was added to the washed cells. The flask with the cells was transferred to a 37° C. incubator. • 5. After 5 minutes, the side of the flask was tapped, and the flask was examined under a microscope for detachment of the cells to the flask. If necessary, the cells were kept in the incubator for an additional 5-10 minutes, with occasional tapping, until lifting was complete. • 6. The trypsin reaction was neutralized by transferring 6-9 ml cell culture medium to sterile 15 ml conical tubes, and by centrifuging the cell culture at 300×g for 7 minutes to pellet the cells (supernatant decanted). • 7. The cells were resuspended in fresh cell culture medium and the cell counting was performed using a hemocytometer. • 8. 100 μl of the resuspended cell culture medium containing ˜5,000 cells were transferred into each well of the sterile 96-well cell culture plate (Corning 3903) and cultured overnight at 37° C. with 5% CO2.
• 1. All test compounds were dissolved in DMSO (Dimethyl sulfoxide) to create a 20 mM stock. • 2. 3 μl of 20 mM stock of each compound was mixed with 27 μl DMSO, and the compound solution was further diluted at a titration ratio of 1:3 (20 μl compound solution+40 μl DMSO) till the 10 points end. • 3. All culture medium was removed from assay plates filled with HT-29 cell cultures. The cells were then washed with 1 PBS, and resuspsended in fresh, FBS-free McCOY's 5A medium containing a cocktail of TNF-α (10 ng/ml), a SMAC mimetic compound (6 μM) and Z-VAD-fluoromethylketone or zVAD-FMK (10 μM) to stimulate the HT-29 cells to increase RIP1 kinase levels and necroptosis. • 4. 0.5 μL of the diluted compound solution was added to the corresponding 96-well assay plates. • 5. The assay plates were incubated for 20 hours at 37° C. with 5% CO2.
• 1. The CellTiter-Glo® Luminescent Cell Viability Assay was employed to detect the ATP levels of viable HT-29 cells. • 2. The CellTiter-Glo® buffer and the lyophilized substrate were equilibrated to room temperature prior to use. • 3. The CellTiter-Glo® substrate was resuspended with CellTiter-Glo® buffer, then mixed by gently vortexing to obtain a homogeneous solution. • 4. 20 μl of the enzyme/substrate mixture was transferred by multi-channel pipetting into 96-well assay plates. • 5. The assay plates were placed on an orbital shaker and the contents were shaken for 3 minutes to induce cell lysis. • 6. The assay plates were incubated at room temperature for 10 minutes to stabilize the luminescent signal. • 7. The luminescence signals were read and recorded with EnVision. • 8. The geometric mean IC50 values were calculated from 10 points response dose with duplicates. […]

[1] = Homo sapiens, HT-29, HT-29 necroptosis cell viability assay, class symbols for IC50
[2] = Homo sapiens, HT-29 cells stimulated with TNF-α (10 ng/ml), SMAC mimetic (6 μM) and zVAD-FMK (10 μM), 20 hours, CellTiter-Glo ATP luminescence, geometric mean IC50 from 10 points
[3] = Homo sapiens, HT-29, HT-29 necroptosis cell viability, IC50 class symbols

`O=c1n(Cc2c(F)cccc2F)cnn1-c1ccc(Oc2ncsc2C(F)F)c(F)c1` [Example 152, 4-(2,6-difluorobenzyl)-2-(4-((5-(difluoromethyl)thiazol-4-yl)oxy)-3-fluorophenyl)-2,4-dihydro-3H-1,2,4-triazol-3-one] showed an IC50 [1] of under 100 nM.
`Cc1nc(C2(F)CC(OCc3ccccc3)C2)sc1Oc1ccc(-n2ncn(Cc3c(F)cccc3F)c2=O)cc1F` (stereo not shown) [Example 111, 2-(4-((2-(3-(benzyloxy)-1-fluorocyclobutyl)-4-methylthiazol-5-yl)oxy)-3-fluorophenyl)-4-(2,6-difluorobenzyl)-2,4-dihydro-3H-1,2,4-triazol-3-one] showed an IC50 [2] of under 100 nM.
For `CC1(C#N)CN(c2cc(Oc3ccc(-n4ncn(Cc5c(F)cccc5F)c4=O)cc3)c(F)cn2)C1` [Example 323, 1-(4-(4-(4-(2,6-difluorobenzyl)-5-oxo-4,5-dihydro-1H-1,2,4-triazol-1-yl)phenoxy)-5-fluoropyridin-2-yl)-3-methylazetidine-3-carbonitrile], the IC50 [3] was 100 to 1000 nM.
`CC(C)(C)OC1CN(c2nccc(Oc3ccc(-n4ncn(Cc5c(F)cccc5F)c4=O)cc3)c2F)C1` [Example 303, 2-(4-((2-(3-(tert-butoxy)azetidin-1-yl)-3-fluoropyridin-4-yl)oxy)phenyl)-4-(2,6-difluorobenzyl)-2,4-dihydro-3H-1,2,4-triazol-3-one] was tested, and the IC50 [3] was under 100 nM.
Work on `Nc1cnc(Cl)cc1Oc1ccc(-n2ncn(Cc3c(F)cccc3F)c2=O)cc1` [Example 441, 2-(4-((5-amino-2-chloropyridin-4-yl)oxy)phenyl)-4-(2,6-difluorobenzyl)-2,4-dihydro-3H-1,2,4-triazol-3-one] yielded an IC50 [3] of under 100 nM.
Work on `Cc1nc(CC#N)sc1Oc1ccc(-n2ncn(Cc3c(F)cccc3F)c2=O)cc1F` [Example 155, 2-(5-(4-(4-(2,6-difluorobenzyl)-5-oxo-4,5-dihydro-1H-1,2,4-triazol-1-yl)-2-fluorophenoxy)-4-methylthiazol-2-yl)acetonitrile] yielded an IC50 [1] of under 100 nM.
In the case of `Cc1nc(CC2COC2)sc1Oc1ccc(-n2ncn(Cc3c(F)cccc3F)c2=O)cc1` [Example 552, 4-(2,6-difluorobenzyl)-2-(4-((4-methyl-2-(oxetan-3-ylmethyl)thiazol-5-yl)oxy)phenyl)-2,4-dihydro-3H-1,2,4-triazol-3-one], the IC50 [1] is reported as under 100 nM.
With `O=c1n(Cc2c(F)cccc2F)cnn1-c1ccc(Oc2ccnc(NC3CC3)c2)cc1` [Example 523, 2-(4-((2-(cyclopropylamino)pyridin-4-yl)oxy)phenyl)-4-(2,6-difluorobenzyl)-2,4-dihydro-3H-1,2,4-triazol-3-one] the IC50 [1] was 100 to 1000 nM.
For `COC(=O)c1nc(C)c(Oc2ccc(-n3nc4n(c3=O)[C@H](c3ccccc3)CC4)cc2F)s1` (single isomer, unassigned) [Example 36], the IC50 [2] was under 100 nM.
`Cc1nc(C(N)=O)sc1Oc1ccc(-n2nc3n(c2=O)C(c2ccccc2)CC3F)cc1F` (stereo not shown) [Example 80, 5-(2-fluoro-4-(7-fluoro-3-oxo-5-phenyl-3,5,6,7-tetrahydro-2H-pyrrolo[2,1-c][1,2,4]triazol-2-yl)phenoxy)-4-methylthiazole-2-carboxamide] gave an IC50 (HT-29 cells stimulated with TNF-α (10 ng/ml), SMAC mimetic (6 μM) and zVAD-FMK (10 μM), 20 hours, CellTiter-Glo ATP luminescence, geometric mean IC50 from 10 points) of under 100 nM.
For `Cc1nc(C#N)sc1Oc1ccc(-n2ncn(Cc3c(F)cccc3F)c2=O)cc1F` [Example 569, 5-(4-(4-(2,6-difluorobenzyl)-5-oxo-4,5-dihydro-1H-1,2,4-triazol-1-yl)-2-fluorophenoxy)-4-methylthiazole-2-carbonitrile], the IC50 [1] was under 100 nM.
`COC1(C#N)CN(c2cc(Oc3ccc(-n4ncn(Cc5c(F)cccc5F)c4=O)cc3F)c(C)cn2)C1` [Example 239, 1-(4-(4-(4-(2,6-difluorobenzyl)-5-oxo-4,5-dihydro-1H-1,2,4-triazol-1-yl)-2-fluorophenoxy)-5-methylpyridin-2-yl)-3-methoxyazetidine-3-carbonitrile] gave an IC50 [3] of under 100 nM.
For `O=c1n(Cc2c(F)cccc2F)cnn1-c1ccc(Oc2ccncc2Br)cc1` [Example 432, 2-(4-((3-bromopyridin-4-yl)oxy)phenyl)-4-(2,6-difluorobenzyl)-2,4-dihydro-3H-1,2,4-triazol-3-one], the IC50 [3] was under 100 nM.
Work on `Cc1nc(N2C[C@H](C#N)[C@@H]2C)sc1Cc1ccc(-n2ncn(Cc3c(F)cccc3F)c2=O)cc1` [Example 63, (2S,3S)-1-(5-(4-(4-(2,6-difluorobenzyl)-5-oxo-4,5-dihydro-1H-1,2,4-triazol-1-yl)benzyl)-4-methylthiazol-2-yl)-2-methylazetidine-3-carbonitrile] yielded an IC50 [2] of under 100 nM.
`Cc1nc(N2C[C@@H](C#N)[C@@H]2C)sc1Oc1ccc(-n2ncn(Cc3c(F)cccc3F)c2=O)cc1` [Example 43, (2S,3R)-1-(5-(4-(4-(2,6-difluorobenzyl)-5-oxo-4,5-dihydro-1H-1,2,4-triazol-1-yl)phenoxy)-4-methylthiazol-2-yl)-2-methylazetidine-3-carbonitrile] gave an IC50 [2] of under 100 nM.
`C[C@H]1[C@@H](O)CN1c1cc(Oc2ccc(-n3nc4n(c3=O)[C@H](c3ccccc3)CC4)cc2F)c(F)cn1` (single isomer, unassigned) [Example 258] gave an IC50 [3] of under 100 nM.
`COC1(C#N)CN(c2cc(Oc3ccc(-n4ncn(Cc5c(F)cccc5F)c4=O)cc3Cl)ccn2)C1` [Example 314, 1-(4-(2-chloro-4-(4-(2,6-difluorobenzyl)-5-oxo-4,5-dihydro-1H-1,2,4-triazol-1-yl)phenoxy)pyridin-2-yl)-3-methoxyazetidine-3-carbonitrile] gave an IC50 [3] of under 100 nM.
For `Cc1nc(N2CC(C#N)C2C)sc1Oc1ccc(-n2ncn(Cc3c(F)cccc3F)c2=O)cc1` (stereo not shown) [Example 48, 1-(5-(4-(4-(2,6-difluorobenzyl)-5-oxo-4,5-dihydro-1H-1,2,4-triazol-1-yl)phenoxy)-4-methylthiazol-2-yl)-2-methylazetidine-3-carbonitrile], the IC50 [2] was under 100 nM.
`Cc1nc(N2CC(N)(CO)C2)sc1Oc1ccc(-n2ncn(Cc3c(F)cccc3F)c2=O)cc1` [Example 71, 2-(4-((2-(3-amino-3-(hydroxymethyl)azetidin-1-yl)-4-methylthiazol-5-yl)oxy)phenyl)-4-(2,6-difluorobenzyl)-2,4-dihydro-3H-1,2,4-triazol-3-one] gave an IC50 [2] of under 100 nM.
`N#CC1CCN(c2cc(Oc3ccc(-n4ncn(Cc5c(F)cccc5F)c4=O)cc3)ccn2)C1` (stereo not shown) [Example 384, 1-(4-(4-(4-(2,6-difluorobenzyl)-5-oxo-4,5-dihydro-1H-1,2,4-triazol-1-yl)phenoxy)pyridin-2-yl)pyrrolidine-3-carbonitrile] showed an IC50 [3] of under 100 nM.
`O=c1n(Cc2c(F)cccc2F)cnn1-c1ccc(Oc2ccnc(N3CCC34COC4)c2)cc1` [Example 245, 2-(4-((2-(6-oxa-1-azaspiro[3.3]heptan-1-yl)pyridin-4-yl)oxy)phenyl)-4-(2,6-difluorobenzyl)-2,4-dihydro-3H-1,2,4-triazol-3-one] was tested, and the IC50 [3] was 100 to 1000 nM.
For `O=c1n(Cc2c(F)cccc2F)cnn1-c1ccc(Oc2ccnc(OCC3CC3)c2)cc1` [Example 347, 2-(4-((2-(cyclopropylmethoxy)pyridin-4-yl)oxy)phenyl)-4-(2,6-difluorobenzyl)-2,4-dihydro-3H-1,2,4-triazol-3-one], the IC50 [3] was under 100 nM.
